According to PMC4279175, “Mechanisms Underlying the Antinociceptive, Antiedematogenic, and Anti-Inflammatory Activity of the Main Flavonoid from Kalanchoe pinnata” (Evidence-based Complementary and Alternative Medicine : eCAM, 2014):

Assays:
[1] = target: T1, COX-2 (Ovis aries, UniProt P79208); experiment: colorimetric COX (ovine) inhibitor screening assay kit (Cayman […]); […] maximum inhibition at […]; type: biochemical
T1 construct: gene PTGS2
T1 sequence (P79208 17-603): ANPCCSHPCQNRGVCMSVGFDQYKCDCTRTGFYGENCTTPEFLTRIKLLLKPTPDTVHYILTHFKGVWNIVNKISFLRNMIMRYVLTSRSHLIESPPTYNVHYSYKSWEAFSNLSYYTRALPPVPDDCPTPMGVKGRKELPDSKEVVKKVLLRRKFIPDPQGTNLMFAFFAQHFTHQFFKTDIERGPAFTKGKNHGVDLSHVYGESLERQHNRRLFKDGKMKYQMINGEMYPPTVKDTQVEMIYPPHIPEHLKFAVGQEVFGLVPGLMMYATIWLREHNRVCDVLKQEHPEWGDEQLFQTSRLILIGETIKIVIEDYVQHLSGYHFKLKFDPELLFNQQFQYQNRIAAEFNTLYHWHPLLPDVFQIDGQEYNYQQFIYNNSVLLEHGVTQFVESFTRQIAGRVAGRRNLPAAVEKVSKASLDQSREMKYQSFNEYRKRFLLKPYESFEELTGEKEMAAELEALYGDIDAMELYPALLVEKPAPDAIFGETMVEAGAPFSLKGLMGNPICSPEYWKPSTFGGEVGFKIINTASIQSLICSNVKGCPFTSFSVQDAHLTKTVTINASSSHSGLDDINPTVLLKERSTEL

[2] = target: T2, COX-1 (Ovis aries, UniProt P05979); experiment: colorimetric COX (ovine) inhibitor screening assay kit (Cayman […]); type: biochemical
T2 construct: gene PTGS1
T2 sequence (P05979 25-600): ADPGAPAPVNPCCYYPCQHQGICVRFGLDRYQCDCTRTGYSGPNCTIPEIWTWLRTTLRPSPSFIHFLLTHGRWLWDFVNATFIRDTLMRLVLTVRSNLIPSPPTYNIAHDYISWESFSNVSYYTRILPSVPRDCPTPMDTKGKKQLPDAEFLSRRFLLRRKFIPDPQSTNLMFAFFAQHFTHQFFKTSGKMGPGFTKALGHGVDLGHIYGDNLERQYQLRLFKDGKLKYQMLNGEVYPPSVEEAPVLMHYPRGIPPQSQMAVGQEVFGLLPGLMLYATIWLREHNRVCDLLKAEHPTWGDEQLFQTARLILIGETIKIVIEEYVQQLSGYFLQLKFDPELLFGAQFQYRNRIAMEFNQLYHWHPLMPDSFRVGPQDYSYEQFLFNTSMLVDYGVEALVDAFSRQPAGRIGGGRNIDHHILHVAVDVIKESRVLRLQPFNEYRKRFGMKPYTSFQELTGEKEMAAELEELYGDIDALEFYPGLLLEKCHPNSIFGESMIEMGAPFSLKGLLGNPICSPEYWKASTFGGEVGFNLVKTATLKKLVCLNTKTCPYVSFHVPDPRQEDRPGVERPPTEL

IC50 [1]: > 84 µM
IC50 [2]: 38 µM
SMILES: C[C@@H]1O[C@@H](Oc2c(-c3ccc(O)c(O)c3)oc3cc(O)cc(O)c3c2=O)[C@H](O[C@@H]2OC[C@H](O)[C@H](O)[C@H]2O)[C@H](O)[C@H]1O [KPFV, quercetin 3-O-α-L-arabinopyranosyl (1 → 2) α-L-rhamnopyranoside]
